Source: ChEMBL document CHEMBL1148851, “Chemoenzymatic synthesis and in vitro studies on the hydrolysis of antimicrobial monoglycosyl diglycerides by pancreatic lipase” (2007)
≈ marks a conversion by molar mass, not a printed value.

Columns and labels:
Format in all cases: functional
Pseudomonas aeruginosa = assay: Antibacterial activity against Pseudomonas aeruginosa ATCC 27753
Staphylococcus aureus [1] = assay: Antibacterial activity against Staphylococcus aureus ATCC 105487
[2] = test system: Mycobacterium tuberculosis; assay: Antibacterial activity against Mycobacterium tuberculosis H37Rv by dilution method; details: Mycobacterium tuberculosis, H37Rv; read-out: MIC
Staphylococcus aureus [3] = assay: Antibacterial activity against Staphylococcus aureus SA52 isolate
Escherichia coli = assay: Antibacterial activity against Escherichia coli ATCC 25922
Bacillus subtilis = assay: Antibacterial activity against Bacillus subtilis ATCC 6633; details: Bacillus subtilis, ATCC 6633; read-out: MIC
Kluyveromyces marxianus = assay: Antifungal activity against Candida pseudotropicalis by dilution method
[4] = test system: Mycobacterium tuberculosis; assay: Antibacterial activity against Mycobacterium tuberculosis H160 by dilution method; details: Mycobacterium tuberculosis, H160; read-out: MIC
Staphylococcus aureus [5] = assay: Antibacterial activity against Staphylococcus aureus SA85 isolate
Staphylococcus aureus [6] = assay: Antibacterial activity against Staphylococcus aureus SA87 isolate; details: Staphylococcus aureus; read-out: MIC
Candida albicans = assay: Antifungal activity against Candida albicans by dilution method
Staphylococcus aureus [7] = assay: Antibacterial activity against Staphylococcus aureus ATCC 25923
[8] = test system: Mycobacterium tuberculosis; assay: Antibacterial activity against Mycobacterium tuberculosis H190 by dilution method
Enterococcus faecalis = assay: Antibacterial activity against Enterococcus faecalis ATCC 29212

| SMILES | MIC (Pseudomonas aeruginosa) [µg/mL] | MIC (Staphylococcus aureus [1]) [µg/mL] | MIC [2] [µg/mL] | MIC (Staphylococcus aureus [3]) [µg/mL] | MIC (Escherichia coli) [µg/mL] | MIC (Bacillus subtilis) [µg/mL] | MIC (Kluyveromyces marxianus) [µg/mL] | MIC [4] [µg/mL] | MIC (Staphylococcus aureus [5]) [µg/mL] | MIC (Staphylococcus aureus [6]) [µg/mL] | MIC (Candida albicans) [µg/mL] | MIC (Staphylococcus aureus [7]) [µg/mL] | MIC [8] [µg/mL] | MIC (Enterococcus faecalis) [µg/mL] |
| --- | --- | --- | --- | --- | --- | --- | --- | --- | --- | --- | --- | --- | --- | --- |
| CCCCCCCC/C=C\CCCCCCCC(=O)OC(COC(=O)CCCCCCCCC)CO[C@@H]1O[C@H](CO)[C@@H](O)[C@H](O)[C@H]1O (stereo not given in full) | > 128 | > 128 | > 128 | > 128 | > 128 | 32 (≈ 47.6 µM) | > 128 | > 128 | 128 (≈ 190 µM) | > 128 | > 128 | 8 (≈ 11.9 µM) | > 128 | > 128 |
| CCCCC/C=C\C/C=C\CCCCCCCC(=O)OC(COC(=O)CCCCCCCCC)CO[C@@H]1O[C@H](CO)[C@@H](O)[C@H](O)[C@H]1O (stereo not given in full) | > 128 | 32 (≈ 47.7 µM) | > 128 | > 128 | > 128 | 128 (≈ 191 µM) | > 128 | > 128 | 32 (≈ 47.7 µM) | 32 (≈ 47.7 µM) | > 128 | > 128 | > 128 | 64 (≈ 95.4 µM) |
| CCCCCCCC/C=C\CCCCCCCC(=O)OC(COC(=O)CCCCCCC)CO[C@@H]1O[C@H](CO)[C@H](O)[C@H](O)[C@H]1O (stereo not given in full) | > 128 | > 128 | 128 (≈ 198 µM) | > 128 | > 128 | 128 (≈ 198 µM) | > 128 | 64 (≈ 99.2 µM) | > 128 | 64 (≈ 99.2 µM) | > 128 | > 128 | 64 (≈ 99.2 µM) | > 128 |
| CCCCCCCC(=O)OCC(CO[C@@H]1O[C@H](CO)[C@H](O)[C@H](O)[C@H]1O)OC(=O)CCCCCCC (stereo not given in full) | > 128 | 32 (≈ 63.2 µM) | 128 (≈ 253 µM) | > 128 | > 128 | 32 (≈ 63.2 µM) | > 128 | 128 (≈ 253 µM) | 32 (≈ 63.2 µM) | 32 (≈ 63.2 µM) | > 128 | 32 (≈ 63.2 µM) | 128 (≈ 253 µM) | 32 (≈ 63.2 µM) |
| CCCCCCCCCC(=O)OCC(CO[C@@H]1O[C@H](CO)[C@H](O)[C@H](O)[C@H]1O)OC(=O)CCCCCCCCC (stereo not given in full) | > 128 | > 128 | 128 (≈ 227 µM) | > 128 | > 128 | > 128 | > 128 | 64 (≈ 114 µM) | 32 (≈ 56.9 µM) | 128 (≈ 227 µM) | > 128 | 32 (≈ 56.9 µM) | 64 (≈ 114 µM) | > 128 |
| CCCCCCCCCCCCCC(=O)OCC(CO[C@@H]1O[C@H](CO)[C@H](O)[C@H](O)[C@H]1O)OC(=O)CCCCCCCCCCCCC (stereo not given in full) | > 128 | > 128 | > 128 | > 128 | > 128 | > 128 | > 128 | > 128 | > 128 | > 128 | > 128 | > 128 | > 128 | > 128 |
| CCCCCCCCCCCCCCCCCC(=O)OCC(CO[C@@H]1O[C@H](CO)[C@H](O)[C@H](O)[C@H]1O)OC(=O)CCCCCCCCCCCCCCCCC (stereo not given in full) | > 128 | > 128 | > 128 | > 128 | > 128 | > 128 | > 128 | > 128 | > 128 | > 128 | > 128 | > 128 | > 128 | > 128 |
| CCCCCCCC/C=C\CCCCCCCC(=O)OC(COC(=O)CCCCCCC)CO[C@@H]1O[C@H](CO)[C@@H](O)[C@H](O)[C@H]1O (stereo not given in full) | > 128 | > 128 | 64 (≈ 99.2 µM) | > 128 | > 128 | 128 (≈ 198 µM) | > 128 | 64 (≈ 99.2 µM) | > 128 | 64 (≈ 99.2 µM) | > 128 | > 128 | 64 (≈ 99.2 µM) | > 128 |
| CC/C=C\C/C=C\C/C=C\CCCCCCCC(=O)OC(COC(=O)CCCCCCC)CO[C@@H]1O[C@H](CO)[C@@H](O)[C@H](O)[C@H]1O (stereo not given in full) | > 128 | > 128 | 64 (≈ 99.9 µM) | > 128 | > 128 | 128 (≈ 200 µM) | > 128 | 128 (≈ 200 µM) | > 128 | 64 (≈ 99.9 µM) | > 128 | > 128 | 64 (≈ 99.9 µM) | > 128 |
| CCCCC/C=C\C/C=C\CCCCCCCC(=O)OC(COC(=O)CCCCCCC)CO[C@@H]1O[C@H](CO)[C@H](O)[C@H](O)[C@H]1O (stereo not given in full) | > 128 | > 128 | 64 (≈ 99.6 µM) | > 128 | > 128 | 128 (≈ 199 µM) | > 128 | 64 (≈ 99.6 µM) | > 128 | 128 (≈ 199 µM) | > 128 | > 128 | 128 (≈ 199 µM) | > 128 |
